These results are taken from US20240325544A1, “CATIONIC LIPID FOR COVALENT MODIFICATION OF PEPTIDES” (PharmalN Corporation, priority 2023, published 2024).

One series has as its system cGMP. Put plainly: Plasma cGMP after SC bolus of natriuretic peptides in CD-1 mice (pharmacodynamics, Table 3). The class given is in vivo. The following applies: SC bolus 1.0 mg/kg (≤0.45 μmol/kg), baseline 10 +/−8 pmol/ml, n = 3-5. The protocol:
(§1) The test articles were formulated or dissolved in sterile water for injection on the same day of administration. […] Blood samples were collected via retro-orbital bleed at 2- and 6-hours post-injection, with two bleedings per animal at two different timepoints. The samples were collected in K2EDTA tubes, processed by centrifugation (2000×g; 15 m 4 eC within 30 minutes after collection), and the resulting plasma samples were stored at −80° C. Biochemical analysis: The plasma concentration of the respective natriuretic peptide was analyzed using commercially available ELISA kits from Phoenix Pharmaceuticals (Burlingame, CA): ANP ELISA (cat #EKE-005-06), BNP ELISA (cat #EKE-011-03), and CNP ELISA (cat #EKE-012-03). […] Plasma cGMP was analyzed using a commercially available kit from Abcam (ab133052, Waltham, MA).

The nature of series [1]: Plasma concentration of respective natriuretic peptide by ELISA after SC bolus in CD-1 mice (pharmacokinetics, Table 3). The following applies: male, CD-1, mouse, in vivo, sc, 1 mg/kg. On the procedure: as §1
For orientation: In an ELISA, binding on a coated surface is turned into a signal by an enzyme label.

Marks after values point to notes of the source that are not given here. Bridge positions count the residues as written; N and C are the ends. Square brackets hold non-standard residues; d marks the D form. Peptide text beside a SMILES is read from it. * marks the point of attachment. Palmitoyl = CCCCCCCCCCCCCCCC(=O)*; Dab = NCC[C@H](N)C(=O)O; Dap = NC[C@H](N)C(=O)O; AEEA = NCCOCCOCC(=O)O; GABA = NCCCC(=O)O

Take `CCCCCCCCCCCCCCCC(=O)NCCOCCOCC(=O)NCCOCCOCC(=O)N[C@@H](CN)C(=O)N[C@@H](CCN)C(=O)NCC(=O)N[C@@H](CC(C)C)C(=O)N[C@@H](CO)C(=O)N[C@@H](CCCCN)C(=O)NCC(=O)N[C@H]1CSSC[C@@H](C(=O)O)NC(=O)CNC(=O)[C@H](CC(C)C)NC(=O)CNC(=O)[C@H](CO)NC(=O)[C@H](CCC(N)=O)NC(=O)[C@H](CO)NC(=O)CNC(=O)[C@H]([C@@H](C)CC)NC(=O)[C@H](CCCNC(=N)N)NC(=O)[C@H](CC(=O)O)NC(=O)[C@H](CC(C)C)NC(=O)[C@H](CCCCN)NC(=O)[C@H](CC(C)C)NC(=O)CNC(=O)[C@H](Cc2ccccc2)NC1=O` [SEQ ID NO: 35] ({Palmitoyl-AEEA-AEEA}-[Dap][Dab]GLSKGCFGLKLDRIGSQSGLGC-OH; disulfide 8-24; C-terminus assumed): in the series on cGMP, the “Plasma concentration of cGMP, 2 hr” value is 65.28**** pmol/mL and the “Plasma concentration of cGMP, 6 hr” value is 35.10** pmol/mL. In series [1], this compound gave a level at 2 h of 12.9 ng/mL and a level at 6 h of 4.13 ng/mL.

Take `CCCCCCCCCCCCCCCC(=O)NCCCC(=O)NCCCC(=O)NCCCC(=O)N[C@@H](CCN)C(=O)N[C@@H](CCN)C(=O)NCC(=O)N[C@@H](CC(C)C)C(=O)N[C@@H](CO)C(=O)N[C@@H](CCCCN)C(=O)NCC(=O)N[C@H]1CSSC[C@@H](C(=O)O)NC(=O)CNC(=O)[C@H](CC(C)C)NC(=O)CNC(=O)[C@H](CO)NC(=O)[C@H](CCC(N)=O)NC(=O)[C@H](CO)NC(=O)CNC(=O)[C@H]([C@@H](C)CC)NC(=O)[C@H](CCCNC(=N)N)NC(=O)[C@H](CC(=O)O)NC(=O)[C@H](CC(C)C)NC(=O)[C@H](CCCCN)NC(=O)[C@H](CC(C)C)NC(=O)CNC(=O)[C@H](Cc2ccccc2)NC1=O` [SEQ ID NO: 36] ({Palmitoyl-GABA-GABA-GABA}-[Dab][Dab]GLSKGCFGLKLDRIGSQSGLGC-OH; disulfide 8-24; C-terminus assumed): in the series on cGMP, the “Plasma concentration of cGMP, 2 hr” value is 54.61*** pmol/mL and the “Plasma concentration of cGMP, 6 hr” value is on record as 41.75** pmol/mL. Also, in series [1], the level at 2 h turned out to be 7.57 ng/mL and the level at 6 h was determined as 2.57 ng/mL.

As for `CCCCCCCCCCCCCCCC(=O)NCCCC(=O)NCCCC(=O)N[C@@H](CCN)C(=O)N[C@@H](CCN)C(=O)NCC(=O)N[C@@H](CC(C)C)C(=O)N[C@@H](CO)C(=O)N[C@@H](CCCCN)C(=O)NCC(=O)N[C@H]1CSSC[C@@H](C(=O)O)NC(=O)CNC(=O)[C@H](CC(C)C)NC(=O)CNC(=O)[C@H](CO)NC(=O)[C@H](CCC(N)=O)NC(=O)[C@H](CO)NC(=O)CNC(=O)[C@H]([C@@H](C)CC)NC(=O)[C@H](CCCNC(=N)N)NC(=O)[C@H](CC(=O)O)NC(=O)[C@H](CC(C)C)NC(=O)[C@H](CCCCN)NC(=O)[C@H](CC(C)C)NC(=O)CNC(=O)[C@H](Cc2ccccc2)NC1=O` [SEQ ID NO: 37] ({Palmitoyl-GABA-GABA}-[Dab][Dab]GLSKGCFGLKLDRIGSQSGLGC-OH; disulfide 8-24; C-terminus assumed), in the series on cGMP, the “Plasma concentration of cGMP, 2 hr” value was 39.77* pmol/mL and the “Plasma concentration of cGMP, 6 hr” value is 22.71** pmol/mL. In series [1], this compound came in with a level at 2 h of 11.9 ng/mL and a level at 6 h of 5.77 ng/mL.

Regarding `CCCCCCCCCCCCCCCC(=O)N[C@@H](CCC(=O)O)C(=O)NCCOCCOCC(=O)NCCOCCOCC(=O)N[C@@H](CCN)C(=O)N[C@@H](CCN)C(=O)NCC(=O)N[C@@H](CC(C)C)C(=O)N[C@@H](CO)C(=O)N[C@@H](CCCCN)C(=O)NCC(=O)N[C@H]1CSSC[C@@H](C(=O)O)NC(=O)CNC(=O)[C@H](CC(C)C)NC(=O)CNC(=O)[C@H](CO)NC(=O)[C@H](CCC(N)=O)NC(=O)[C@H](CO)NC(=O)CNC(=O)[C@H]([C@@H](C)CC)NC(=O)[C@H](CCCNC(=N)N)NC(=O)[C@H](CC(=O)O)NC(=O)[C@H](CC(C)C)NC(=O)[C@H](CCCCN)NC(=O)[C@H](CC(C)C)NC(=O)CNC(=O)[C@H](Cc2ccccc2)NC1=O` [SEQ ID NO: 38] (Palmitoyl-E[AEEA][AEEA][Dab][Dab]GLSKGCFGLKLDRIGSQSGLGC-OH; disulfide 11-27; C-terminus assumed), in the series with cGMP, the “Plasma concentration of cGMP, 2 hr” value is given as 74.69* pmol/mL and the “Plasma concentration of cGMP, 6 hr” value is given as 38.95*** pmol/mL. For the same compound, in series [1], the level at 2 h stood at 31.7 ng/mL and the level at 6 h stood at 25.9 ng/mL.
